Where two headings read alike, the source gives them in different places.
What was measured:
mold = assay: Mold remediation study: vapor from acidified 600 ppm NaOCl in a closed 1400 cc container; assay type: cell-based; conditions: 10 ml acidified 600 ppm NaOCl in 1400 cc; all NaOCl assumed converted to HOCl
Protocol: For purposes of the calculation which now follows, it is assumed that essentially all of the NaOCl is converted to HOCl when acidified, which is a valid assumption given the equilibrium of the reaction. For mold remediation studies, 10 ml of acidified 600 ppm NaOCl was placed in a container with a volume of 1400 cc. • 10 ml of 600 ppm NaOCl=0.00600 g NaOCl/10 ml • 0.00600 g NaOCl=(0.00600 g NaOCl)(52.5 g HOCl)/(74.5 g NaOCl)=0.00423 g HOCl This quantity is diluted to 1400 cc. Therefore, the maximum concentration of HOCl gas in the container studied is: • 0.00423 g/1400 cc=3.02×10^−6 g HOCl/cc. […] Thus, we have discovered that by converting the NaOCl to HOCl and using it in the form of a gas the concentration needed for mold cidal activity is at least about 47 times less than is recommended for sanitation in the liquid form of hypochlorite bleach! We next investigated the removal of mold stain from surfaces.

germs on surfaces [1] = assay: Label-recommended hypochlorite concentration for sanitization of surfaces (Ultra Clorox label)
mold and mold stains = assay: Mold kill and mold stain removal study: vapor from acidified 6.0% NaOCl diluted in water, in a 1400 cc container; assay type: cell-based; conditions: 5 mL 6.0% NaOCl + 50 mL water, in 1400 cc
Protocol: First, the recommended concentration of HOCl for sanitization of surfaces according to the prior art is calculated. Referring to the label of Ultra Chlorox® brand of sodium hypochlorite and noticing that a recommended concentration of NaOCl for mold and mildew stain removal is 3⁄4 cup Ultra Chlorox® plus one gallon of water. Ultra Chlorox® contains 6.00% NaOCl per the label. […] For the mold remediation studies, 5 mL of 6.0% NaOCl was mixed with 50 mL of water, acidified and was placed in a container with a volume of 1400 cc. • 5 mL of 6.0% NaOCl=0.30 g NaOCl • Assuming all of the NaOCl is converted to HOCl: • 0.30 g NaOCl=(0.30 g NaOCl)(52.5 g HOCl)/(74.5 g NaOCl)=0.21 g HOCl This quantity of HOCl is diluted to 1400 cc. Therefore, the maximum concentration of HOCl gas in the container studied is: • 0.21 g HOCl/1400 cc=15×10^-5 g HOCl/cc […]

mold and mildew stain = assay: Label-recommended hypochlorite concentration for mold and mildew stain removal (Ultra Chlorox label)
Protocol: First, the recommended concentration of HOCl for sanitization of surfaces according to the prior art is calculated. Referring to the label of Ultra Chlorox® brand of sodium hypochlorite and noticing that a recommended concentration of NaOCl for mold and mildew stain removal is 3⁄4 cup Ultra Chlorox® plus one gallon of water. Ultra Chlorox® contains 6.00% NaOCl per the label. […] For the mold remediation studies, 5 mL of 6.0% NaOCl was mixed with 50 mL of water, acidified and was placed in a container with a volume of 1400 cc. • 5 mL of 6.0% NaOCl=0.30 g NaOCl • Assuming all of the NaOCl is converted to HOCl: • 0.30 g NaOCl=(0.30 g NaOCl)(52.5 g HOCl)/(74.5 g NaOCl)=0.21 g HOCl This quantity of HOCl is diluted to 1400 cc. Therefore, the maximum concentration of HOCl gas in the container studied is: • 0.21 g HOCl/1400 cc=15×10^-5 g HOCl/cc

mold colonies = assay: Cidal action of controlled hypochlorous acid vapor on mold colonies (general statements); assay type: cell-based
[2] = cited from earlier work
germs on surfaces [3] = conditions: cited from earlier work

Question: For `OCl` [hypochlorous acid], which “maximum concentration of HOCl gas in the container found to kill mold” value (mold) is on record?
Answer: 3.02×10^−6 g HOCl/cc

Question: What about the “equivalent concentration of HOCl necessary to sanitize per manufacturer recommendation” value (germs on surfaces [1]; calculated from 200 ppm NaOCl, liquid) of the same molecule?
Answer: 1.41×10^−4 g HOCL/cc

Question: What about the “maximum concentration of HOCl gas in the container found to kill mold and remove stains” value (mold and mold stains) of the same molecule?
Answer: 15×10^−5 g HOCl/cc

Question: And the “Conc. of HOCl equivalent to the recommended stain removal solution” value (mold and mildew stain; all NaOCl assumed converted to HOCl)?
Answer: 0.0019 g HOCl/cc

Question: And the “time to completely eradicate even the most refractory of mold colonies” value (mold colonies; hypochlorous acid vapors generated and controlled as described)?
Answer: ≤ 24 h

Question: What about the “hypochlorous acid concentration in the air that must be exceeded for effective cidal action on mold-contaminated materials” value (mold colonies; in air) of the same molecule?
Answer: exceed 3×10^−7 grams/cubic centimeter

Question: And the “% as HOCl” value ([2]; pH 5.0)?
Answer: 100%

Question: And the “% as HOCl” value ([2]; pH 6.0)?
Answer: 96%

Question: And the “% as HOCl” value ([2]; pH 7.0)?
Answer: 72%

Question: And the “% as HOCl” value ([2]; pH 7.2)?
Answer: 66%

Question: And the “% as HOCl” value ([2]; pH 7.5)?
Answer: 48%

Question: And the “% as HOCl” value ([2]; pH 7.8)?
Answer: 33%

Question: And the “% as HOCl” value ([2]; pH 8.0)?
Answer: 22%

Question: Which “recommended sanitizing concentration expressed by volume” value (germs on surfaces [1]; corresponds to 200 ppm aqueous solution) does the source give for `OCl` [sodium hypochlorite, reference compound] here?
Answer: 200×10^−6 grams/cc

Question: And the “recommended concentration for killing germs on surfaces / sanitation” value (germs on surfaces [3])?
Answer: 200 ppm

Question: What about the “NaOCl conc. recommended by Ultra Chlorox for mold and mildew stain removal” value (mold and mildew stain; ¾ cup Ultra Chlorox (6.00% NaOCl) plus one gallon of water) of the same molecule?
Answer: 0.0027 g/cc

Question: Which “% as OCl—” value ([2]; pH 5.0) does the source give for hypochlorite ion [OCl—] here?
Answer: 0%

Question: What about the “% as OCl—” value ([2]; pH 6.0) of the same molecule?
Answer: 4%

Question: And the “% as OCl—” value ([2]; pH 7.0)?
Answer: 28%

Question: And the “% as OCl—” value ([2]; pH 7.2)?
Answer: 34%

Question: And the “% as OCl—” value ([2]; pH 7.5)?
Answer: 52%

Question: And the “% as OCl—” value ([2]; pH 7.8)?
Answer: 67%

Question: And the “% as OCl—” value ([2]; pH 8.0)?
Answer: 78%
